# From patent US7598028B2, “Compositions and methods for detecting and treating prostate disorders” (The Regents of the University of Michigan, priority 2006, dated 2009)
# “Also recorded” adds a separate entry of the source.
# Experiments:
# Format in all cases: cell-based, human
# [1] = system: N1 prostate fibroblast cells; experiment: Proliferation assay, add back, N1 fibroblasts; settings: add back of exogenous chemokine, 96 hours
# Source text: FIG. 6C describes how CXCL1, CXCL5, CXCL6, and CXCL12 stimulate N15C6 prostate epithelial cell proliferation, N1 prostate fibroblast cell proliferation, and LNCaP prostate epithelial cell proliferation compared to serum-free (SF HIE) media alone. “Add back” assays were next performed to determine whether the addition of exogenous CXCL1, CXCL5, CXCL6, and CXCL12 to defined, serum-free media induced […] or LNCaP prostate epithelial or N1 fibroblast cell proliferation. For these and all experiments utilizing N15C6 and LNCaP cells, the N15C6 and N1 cells were used between passage 35-45, and LNCaP cells between passages 25-35, for consistency. All recombinant CXC proteins were obtained from R&D systems (e.g., CXCL1, #275-GR, CXCL5, #254-X; CXCL6, #333-GC, and SDF1 alpha/CXCL12, #350-NS). Cells were plated at 50,000 cells/well in triplicate, treated for 96 hours, and counted. […] Moreover, the concentrations for CXCL1, CXCL5, CXCL6 and CXCL12 observed to be growth-stimulatory for prostate epithelial cells were similar to those secreted into the media by older prostate stromal fibroblasts (see, e.g., FIGS. 6A and 6B).
# [2] = system: PC3 prostate epithelial cells; experiment: Proliferation assay, PC3; settings: 0.001-1 nM CXCL5, p<0.05
# Description: Proliferation Assays. Cellular proliferation was assessed after plating cells at 50,000 cell/well in triplicate in six well plates and counting cells after 24 and 96 hours of incubation as described previously (see, e.g., Begley L, et al., Genes Chromosomes Cancer. 2006 February; 45(2): 136-46; herein incorporated by reference in its entirety). To assess the effects of exogenous CXCL5 on cellular proliferation, recombinant human CXCL5 (R&D Systems, 254-X) was added at the desired concentration in 2 ml SF media (or 2 ml SF media alone for control) to each well. The cells were re-fed at 24 hours growth and counted at 24 and 96 hours growth. Cell counts were normalized to 50,000 cells at 24 hours to account for any plating discrepancies. Averages and standard deviations of cell number were calculated for each time point under each media condition. For the antibody blockade experiments, 10,000 cells per well were plated in triplicate in 24 well dishes and preincubated with mouse anti-human CXCR2 (Biosource AHR1532X) or mouse antihuman CXCR4 (BD Pharmingen 555971) at 1 ug/ml for 1 hour prior to CXCL5 addition. Cells were maintained in media containing appropriate antibodies for the entirety of the experiment and were counted at 24 and 96 hours as above.
# [3] = system: PC3 prostate cancer cells; experiment: Matrigel invasion assay, PC3; settings: 20 nM chemokine
# Description: Invasion Assays. Ability to invade through synthetic basement membrane was measured by plating 15,000 cells/well onto control or Matrigel-coated membranes in duplicate using 24-well BD Matrigel Invasion Chambers (Becton-Dickinson). Cells were plated in complete media and left untreated or pre-treated with 1 ug/ml anti-CXCR2 (Biosource AHR1532X) or anti-CXCR4 (BD Pharmingen 555971) for 2 hours, then exposed to complete media only or 20 nM CXCL5 as a chemo-attractant added to the companion plate. After 24 hours of incubation, the upper surface of the membranes were ‘scrubbed’ to remove non-invasive cells, and the cells that had invaded through to the lower surface of the Matrigel-coated membranes or to the bottom of the companion plate were fixed, stained, and counted. The number of invaded cells was calculated as the average number of cells present on the lower surface of the Matrigel-coated membrane and the companion plate counted over four low power (10× objective) microscopic fields per membrane over both wells per experimental condition. […]
# p65 subunit of NF-kappaB = experiment: Western blot, p65 phosphorylation in N15C6 cells; settings: 10 pM, 100 pM or 1 nM CXCL5 tested
# Description: Western blot analysis Cells were lysed, proteins resolved by electrophoresis and electroblotting was carried out as described previously (Chaib H, et al., (2001) Cancer Res. 61, 2390-2394; incorporated herein by reference in its entirety). Proteins were detected using antibodies against phospho-ERK½ (Cell Signaling no. 9101), total ERK½ (Cell Signaling, no. 9102), CXCR4 (Abcam no. ab2074), CXCR7 (Abcam #Ab12870, Abcam #Ab12871, Abcam #38089), phospho-p65 (Rockland no. 100-401-264), total p65 (Rockland no. 100-4165), or beta-actin (Santa Cruz no. sc-1615), in conjunction with an ECL detection system.
# Western Blot and Protein Analysis. […] Proteins were detected using antibodies against phospho-ERK½ (Cell Signaling #9101), total ERK½ (Cell Signaling, #9102), phospho-p65, (Rockland #100-401-264), total p65 (Rockland #100-4165), STAT3 (9139), phospho-STAT3 (9138), beta-actin (Santa Cruz #sc-1615), or tubulin (Upstate, #DM1A) in conjunction with an ECL detection system. […] Densitometric quantitation of immunoblot films was accomplished by scanning the original films and converting the .tiff files to grayscale. Images were inverted, and mean band intensities were measured using ImageJ (www, followed by, .nih.gov). The mean intensity of adjacent background was also measured for each band and subtracted from band intensity.
# STAT3 = experiment: Western blot, STAT3 phosphorylation in LNCaP cells; settings: sub-nanomolar or nanomolar levels of CXCL5
# Description: Western Blot and Protein Analysis. Cells were lysed, proteins resolved by electrophoresis, and electroblotting was carried out as described previously except that 20 ug protein was electrophoresed per gel lane for N15C6 cells and 100 ug protein for LNCaP cells (see, e.g., Begley L, et al., Aging Cell. 2005 December; 4(6):291-8; Begley L A, et al., J Biol. Chem. 2007 Sep. 14; 282(37):26767-74; each herein incorporated by reference in their entireties). Proteins were detected using antibodies against phospho-ERK½ (Cell Signaling #9101), total ERK½ (Cell Signaling, #9102), phospho-p65, (Rockland #100-401-264), total p65 (Rockland #100-4165), STAT3 (9139), phospho-STAT3 (9138), beta-actin (Santa Cruz #sc-1615), or tubulin (Upstate, #DM1A) in conjunction with an ECL detection system. Secondary antibodies included goat anti-rabbit (Cell Signaling, #7074) and goat anti-mouse (Santa Cruz, #SC-2005), and both were used at a 1:5000 concentration. Immunoblots shown are representative of triplicate experiments. Densitometric quantitation of immunoblot films was accomplished by scanning the original films and converting the .tiff files to grayscale. Images were inverted, and mean band intensities were measured using ImageJ (www, followed by, .nih.gov). The mean intensity of adjacent background was also measured for each band and subtracted from band intensity.
substance,measurement,setting,value
"CXCL5: recombinant human CXCL5 (R&D Systems, 254-X), CXC-type chemokine",cell proliferation compared to serum-free (SF HIE) media alone,[1],stimulate
same,proliferation versus SF media alone,[2],significantly higher
same,invasion through Matrigel versus control media / vehicle,[3],invaded; also recorded: significantly more
same,NFkappaB subunit activation,p65 subunit of NF-kappaB,evident only after treatment with 1 nM CXCL5
same,activation of STAT3,STAT3,not observed
